Test results: patent publication US6551774B1, “Diagnostic methods for conditions associated with elevated cellular levels of telomerase activity” (Board of Regents, The University of Texas System, priority 1992, dated 2003)

Assays:
Tetrahymena cells [1] = experiment: Telomere length in vegetatively grown Tetrahymena by Southern blot; format: cell-based, Tetrahymena thermophila
Tetrahymena cells [2] = experiment: Single-cell transfer cultures of Tetrahymena with AZT or Ara-G; format: cell-based, Tetrahymena thermophila
Experimental: For analysis of vegetative growth and macronuclear DNA from single-cell cultures containing the nucleoside analogs AZT or Ara-G, SB210 (VI) cells were grown from stationary stock cultures overnight at 30° C. with shaking (100 rpm) in 50 ml 2% PPYS or Isobroth. Cells were counted and added to the appropriate medium plus analog (Ara-G to 1 mM or DMSO to 1% as control in 2% PPYS; AZT to 10 μm or 1 mM, or no addition as control in Isobroth) and plated in 96-well plates (Falcon), 100 μl per well at a density of 1 cell per well. 5 plates were prepared for each analog or control. Wells were scored for cell growth and plates were replica plated every 1-2 days (Ara-G and DMSO plates) or every 2-4 days (AZT and Isobroth control plates) to maintain approximate inoculation densities of 1-10 cells per well for each passage. Occasionally individual wells were passaged by hand (1 μl inoculated per well using a pipettor) into several blank wells, to expand the number of live wells per plate as single-cell cultures were lost over time due to low probability of being transferred at each passage. After passaging, cells were pooled, pelleted and stored at −80° C. until processed for DNA analysis.
To test whether we had missed such a subpopulation of cells, we carried out the same experiments on vegetatively dividing Tetrahymena cells in the presence and absence of drug, but in these experiments the subculturing was carried out by plating cells at an average of 1 to 10 cells per well in microtiter plate wells in the presence of 10 μM and 1 mM AZT, and 10 μM and 1 mM Ara-G. For each drug, cells were plated out in this manner for 30 consecutive days (90 to 150 cell generations) and 16 consecutive days (50 to 80 cell generations) respectively for the 10 μM and 1 mM drug concentrations. DNA was isolated at intervals from combined samplings of the wells for analysis of telomere length.

[3] = test system: lymphoma cell line JY 616; experiment: Growth of cultured JY lymphoma cells with potential telomerase inhibitors; format: cell-based, human; conditions: 50 μM; normal rate until week 3
Experimental: (§1) The effect of the agents on telomerase activity in intact cells was then studied utilizing the lymphoma cell line JY 616 which were maintained in RPMI 1640 with […] Hepes, 10% FCS, and penicillin/streptomycin (Gibco). The cells were cultured in 6-well plates (Falcon) with 5.0 ML of medium per well in duplicate. Cells were passaged every 7-10 days which corresponded to 5-7 mean population doublings (MPD), and seeded at 3×10^4 cells per well into fresh medium containing analog or control. Cell viability was monitored prior to harvest utilizing trypan blue stain (Gibco) during counting with a hemocytometer. The average ratio of stained: unstained cells (dead:alive) was […]. The intactness of the DNA was measured on a parallel gel by observing its mobility in a gel prior to digestion by a restriction enzyme.

[4] = test system: lymphoma cell line JY 616; experiment: Telomere length of JY lymphoma cells by Southern blot; format: cell-based, human; conditions: AZT treated cells, week 3
Experimental: The first lane is DNA from the cells at the start of the experiment, the second is the RPMI control, and the third is cells treated with AZT for the times indicated.
Cells were treated over a 10 week period with either 10 μM ddG in 0.01% DMSO or medium with 0.01% DMSO only.
as §1

[5] = 1 mM in Isobroth, single cell transfers

## Cc1cn([C@H]2C[C@H](N=[N+]=[N-])[C@@H](CO)O2)c(=O)[nH]c1=O [AZT]
Tetrahymena cells [1]; 10 μM, the lowest concentration tested
  fraction of the maximal telomere shortening effect: at least 50%
Tetrahymena cells [1]; 1 and 5 mM in 2% PPYS medium
  shortening of telomeres compared with control cultures: ≤ 170 base pairs
Tetrahymena cells [2]; 10 μM AZT, 10 μM or 1 mM Ara-G, 1 to 10 cells per well
  plating efficiency compared with control medium: no changes in the plating efficiency
Tetrahymena cells [2]; 1 mM in Isobroth
  mean length and size distribution of telomeric DNA of pooled fast cells: indistinguishable from those of control cells grown without AZT
  telomeric DNA of pooled slow cells: slight decrease in mean telomere length and heterogeneity
Tetrahymena cells [2]; [5]
  growth rate of the fast growth class: 2 to 4 cell doubling per day
  growth rate of the slow growth class: 0 to 1 cell doubling per day
[3]
  cell growth: ceased proliferating
[4]
  mean telomere length compared to the control medium: marked decrease in mean telomere length
